This passage reports inhibition and IC50 results from US6333338A, “Bispiperidines as antithrombotic agents” (Laboratoire L. Lafon, priority 1998, dated 2001).

For experiment [1], the system named is guinea pig platelets. Description: Ex vivo/vitro inhibition of platelet aggregation after administration via the gastric route in guinea pigs. Details: species or system guinea pig (Dunkin-Hartley). Conditions: Cavia porcellus, Platelet, fasted guinea pigs. The procedure:
A study of the inhibitory activity of the compounds of formula I on platelet aggregation was carried out in vitro, i.e. by direct contact of solutions of variable concentrations of the compounds with platelets freshly separated from a sample of total blood, taken under standardized conditions, from laboratory animals (guinea pigs) and from healthy human subjects who have not received any substances or drugs that might interfere with blood clotting. The anti-platelet-aggregating activity was also studied ex vivo/vitro, i.e. after administration of the substances claimed to guinea pigs to measure the intensity and duration of the anti-aggregating action induced by the fraction of the test product absorbed and circulating in the blood. Evaluation of the anti-platelet-aggregating activity of the compounds is carried out in the same guinea pigs as those mentioned above (Dunkin-Hartley strain). […] The allocation of the treatments to the animals is random. The blood is taken and then treated under the same conditions as those described above for the in vitro studies. The results of the inhibition of the platelet aggregation obtained for each test concentration make it possible to calculate the IC50 concentration of each test product and the kinetics of the inhibitory effect and its duration of action.

For experiment [2], the system named is guinea pig platelets. The experiment is described as follows: In vitro inhibition of collagen-induced platelet aggregation, guinea pig platelets (PRP). The class given is cell-based, guinea pig (male Dunkin-Hartley). Conditions: Cavia porcellus, Platelet, 0.05 h, collagen 1 μg/ml, 3 minutes of contact at 37° C. As to the method: (§1) A study of the inhibitory activity of the compounds of formula I on platelet aggregation was carried out in vitro, i.e. by direct contact of solutions of variable concentrations of the compounds with platelets freshly separated from a sample of total blood, taken under standardized conditions, from laboratory animals (guinea pigs) and from healthy human subjects who have not received any substances or drugs that might interfere with blood clotting. The anti-platelet-aggregating activity was also studied ex vivo/vitro, i.e. after administration of the substances claimed to guinea pigs to measure the intensity and duration of the anti-aggregating action induced by the fraction of the test product absorbed and circulating in the blood.
Blood is taken by intracardiac puncture from male Dunkin-Hartley guinea pigs (weighing about 330 g), at a rate of 4.5 ml per 0.5 ml of trisodium citrate (concentration of the aqueous solution: 1.55%) in order to prevent all trace of clotting. The platelet-rich plasma (PRP) is obtained by centrifuging the tubes of total blood for 15 minutes at 150 g.
The PRPs are collected as "pools". The platelets contained in these pools are counted using a Coulter ZM haematology automatic device: if necessary, a dilution is carried out in order for the platelet concentration in the plasma to be between 200,000 and 400,000 platelets/mm^3. Simultaneously, other samples of these pools serve to prepare the platelet-poor plasma (PPP) by centrifugation at 1500 g for 15 minutes.
The kinetic study of the platelet aggregation is carried out by adding a collagen solution (1 μg/ml) to a volume of PRP, using a Chrono-log Corporation aggregometer (490-D1 or 560 VS) which uses an optical detection of the appearance of the thrombus.
The measurements of the aggregation inhibition are carried out after 3 minutes of contact at 37° C. with agitation.

Experiment [3] has as its system human platelets. Description: In vitro inhibition of collagen-induced platelet aggregation, human platelets (PRP). The class given is cell-based. Conditions: 0.05 h, collagen 5 μg/ml, 3 minutes of contact at 37° C., read-out: IC50 (M) in vitro, Man. As to the method: as §1
Venous blood is taken from a group of ten healthy human subjects of the same age, by puncture into a vein of the fold of the elbow and is collected in a glass tube containing aqueous 0.129 M sodium citrate solution (1 volume of citrate solution per 9 volumes of blood). Each tube is then centrifuged a first time at 20° C. and 100 g for 15 minutes in order to obtain the platelet-rich plasma (PRP); after removing this PRP, the tube is again centrifuged at 2000 g for 15 minutes in order this time to remove the platelet-poor plasma (PPP).
For each identified sample of PRP, the platelets are counted using a Coulter ZM counter. Each sample is then used to study the variation in inhibition of the platelet aggregation triggered by the addition of a Chromo-par Reagent collagen glucose solution from Coultronics (used at a concentration of 5 μg/ml) as a function of the addition of increasing concentrations of each compound in a range covering the interval 10^-8 M→10^-5 M, (example of concentrations: 10^-8 M, […], 6×10^-6 M, 4×10^-6 M, 2×10^-6 M, 10^-6 M, […], 10^-5 M). Beforehand, for each compound, an aqueous 10^-3 M solution is prepared. A control test intended to check the possible effect of the solvents (reference value) on the platelet aggregation is introduced into each measurement series, and is measured after 3 minutes of contact at 37° C. with agitation.
From the percentages of inhibition of the platelet aggregation measured for each concentration of each compound, the 50% inhibitory concentration (IC50) is calculated.

Where [4] appears, read: 1 h before blood sampling, read-out: % of g.r. inhibition guinea pig ex vivo, d = 150 mg/kg, 1 h.
The mark [5] stands for this setting: 1 h before blood sampling, read-out: % of g.r. inhibition guinea pig ex vivo, d = 10 mg/kg, 1 h.
Where [6] appears, read: 2 h before blood sampling, read-out: % of g.r. inhibition guinea pig ex vivo, d = 150 mg/kg, 2 h.
Setting [7] is: 2 h before blood sampling, read-out: % of g.r. inhibition guinea pig ex vivo, d = 10 mg/kg, 2 h.

Where a name gives a salt, the structure may show the parent alone. Read-outs that look alike come from different tables or passages of the source.

In general, IC50 refers to the midpoint of a concentration-inhibition curve. Turning to `O=C(O)C[C@H](NC(=O)CNC(=O)C(CCC1CCNCC1)CCC1CCNCC1)C(=O)NCCc1cccc2[nH]ccc12` [Example 17, (3S)-4-{[2-(1H-Indol-4-yl)ethyl]amino}-4-oxo-3-{[2-({4-(4-piperidyl)-2-[2-(4-piperidyl)ethyl]butanoyl}amino)acetyl]amino}butanoic Acid Dihydrochloride], the inhibition at 150 mg/kg in experiment [1] (setting [4]) was -19%. Further, the IC50 in experiment [2] came out at 7400 nM; in experiment [3], 6e-06 M.

With `CCCc1ccc(S(=O)(=O)NC(CNC(=O)CNC(=O)C(CCC2CCNCC2)CCC2CCNCC2)C(=O)O)cc1` (stereo not shown) [Example 28, 2-{[(4-Propylphenyl)sulphonyl]amino}-3-{[2-({4-(4-piperidyl)-2-[2-(4-piperidyl)ethyl]butanoyl}amino)acetyl]amino}propanoic Acid Dihydrochloride], in experiment [1] (setting [5]), the inhibition at 10 mg/kg was -18%. The inhibition at 150 mg/kg was -73% in experiment [1] (setting [4]) and -75% in experiment [1] (setting [6]). Also, the IC50 in experiment [2] worked out at 1500 nM; in experiment [3], 1.1e-06 M.

With `COc1ccc(S(=O)(=O)N[C@@H](CNC(=O)CNC(=O)C(CCC2CCNCC2)CCC2CCNCC2)C(=O)O)c2ccccc12` [Example 52, 2-([(4-Methoxy-1-naphthyl)sulphonyl]amino)-3-{[2-({4-(4-piperidyl)-2-[2-(4-piperidyl)ethyl]butanoyl}amino)acetyl]amino}propanoic Acid Dihydrochloride], the inhibition at 10 mg/kg in experiment [1] (setting [5]) was -58%; in experiment [1] (setting [7]), -30%. Besides, the IC50 in experiment [2] came to 35 nM; in experiment [3], 9.3e-08 M.

Consider `O=C(CNC(=O)C(CCC1CCNCC1)CCC1CCNCC1)NCC(NS(=O)(=O)c1cccs1)C(=O)O` (stereo not shown) [Example 33, 2-[(2-Thienylsulphonyl)amino]-3-{[2-({4-(4-piperidyl)-2-[2-(4-piperidyl)ethyl]butanoyl}amino)acetyl]amino}propanoic Acid Dihydrochloride], for which the inhibition at 10 mg/kg was -14% in experiment [1] (setting [5]) and -5% in experiment [1] (setting [7]). The IC50 is 710 nM in experiment [2] and 4.9e-07 M in experiment [3].

Consider `O=C(CNC(=O)C(CCC1CCNCC1)CCC1CCNCC1)NCC(NS(=O)(=O)c1ccc(F)cc1)C(=O)O` (stereo not shown) [Example 35, 2-{[(4-Fluorophenyl)sulphonyl]amino}-3-{[2-({4-(4-piperidyl)-2-[2-(4-piperidyl)ethyl]butanoyl}amino)acetyl]amino}propanoic Acid Dihydrochloride], for which the inhibition at 10 mg/kg was -5% in experiment [1] (setting [5]) and 0% in experiment [1] (setting [7]). Besides, the IC50 in experiment [2] is 18 nM; in experiment [3] it was 1.3e-08 M.

For `COc1cc2ccc(S(=O)(=O)N[C@@H](CNC(=O)CNC(=O)C(CCC3CCNCC3)CCC3CCNCC3)C(=O)O)cc2cc1OC` [Example 53, 2-{[(6,7-Dimethoxy-2-naphthyl)sulphonyl]amino}-3-{[2-({4-(4-piperidyl)-2-[2-(4-piperidyl)ethyl]butanoyl}amino)acetyl]amino}propanoic Acid Dihydrochloride], the values for the inhibition at 10 mg/kg in experiment [1] (setting [5]) and in experiment [1] (setting [7]) were -73% and -9%, respectively. Further, the IC50 in experiment [2] stood at 37 nM; in experiment [3], 7.3e-08 M.

`O=C(CNC(=O)C(CCC1CCNCC1)CCC1CCNCC1)NCC(NS(=O)(=O)c1ccccc1)C(=O)O` (stereo not shown) [Example 26, 2-[(Phenylsulphonyl)amino]-3-{[2-({4-(4-piperidyl)-2-[2-(4-piperidyl)ethyl]butanoyl}amino)acetyl]amino}propanoic Acid Dihydrochloride]: the inhibition at 10 mg/kg in experiment [1] (setting [5]) is -41%; in experiment [1] (setting [7]) it was -20%. The inhibition at 150 mg/kg in experiment [1] (setting [4]) was -77%; in experiment [1] (setting [6]), -68%. In addition, the IC50 in experiment [2] worked out at 440 nM; in experiment [3], 5.3e-07 M.

Regarding `O=C(CNC(=O)C(CCC1CCNCC1)CCC1CCNCC1)NCC(NS(=O)(=O)c1ccc(Cl)cc1)C(=O)O` (stereo not shown) [Example 34, 2-([(4-Chlorophenyl)sulphonyl]amino)-3-{[2-({4-(4-piperidyl)-2-[2-(4-piperidyl)ethyl]butanoyl}amino)acetyl]amino}propanoic Acid Dihydrochloride], the inhibition at 10 mg/kg in experiment [1] (setting [5]) is -19%; in experiment [1] (setting [7]) it was -8%. Further, the IC50 was found to be 500 nM in experiment [2] and 8.9e-07 M in experiment [3].

Turning to `O=C(CNC(=O)C(CCC1CCNCC1)CCC1CCNCC1)NCC(NS(=O)(=O)c1cccc2ccccc12)C(=O)O` (stereo not shown) [Example 31, 2-[(1-Naphthylsulphonyl)amino]-3-{[2-({4-(4-piperidyl)-2-[2-(4-piperidyl)ethyl]butanoyl}amino)acetyl]amino}propanoic Acid Dihydrochloride], the inhibition at 10 mg/kg in experiment [1] (setting [5]) and in experiment [1] (setting [7]) was -81% in each case. Besides, the half-inhibitory concentration (IC50) in experiment [2] came to 44 nM; in experiment [3], 5.8e-07 M.

Regarding `O=C(O)CC(CCc1ccccc1)NC(=O)CNC(=O)C(CCC1CCNCC1)CCC1CCNCC1` (stereo not shown) [Example 15, 5-Phenyl-3-{[2-({4-(4-piperidyl)-2-[2-(4-piperidyl)ethyl]butanoyl}amino)acetyl]amino}pentanoic Acid Dihydrochloride], the inhibition at 150 mg/kg in experiment [1] (setting [4]) is -84%; in experiment [1] (setting [6]), -26%. The IC50 in experiment [2] worked out at 4300 nM; in experiment [3] it was 1.5e-07 M.

Regarding `COc1ccc(C(CC(=O)O)NC(=O)CNC(=O)C(CCC2CCNCC2)CCC2CCNCC2)cc1OC` (stereo not shown) [Example 8, 3-(3,4-Dimethoxyphenyl)-3-{[2-({4-(4-piperidyl)-2-[2-(4-piperidyl)ethyl]butanoyl}amino)acetyl]amino}propanoic Acid Dihydrochloride], the inhibition at 150 mg/kg in experiment [1] (setting [4]) is -10%; in experiment [1] (setting [6]), -31%. Also, the results for the IC50 in experiment [2] and in experiment [3] were 35000 nM and 1.6e-06 M, respectively.

Turning to `O=C(CNC(=O)C(CCC1CCNCC1)CCC1CCNCC1)NCC(NS(=O)(=O)c1ccc(-c2ccccc2)cc1)C(=O)O` (stereo not shown) [Example 30, 2-[([1,1-Biphenyl]-4-ylsulphonyl)amino]-3-{[2-({4-(4-piperidyl)-2-[2-(4-piperidyl)ethyl]butanoyl}amino)acetyl]amino}propanoic Acid Dihydrochloride], in experiment [1] (setting [5]), the inhibition at 10 mg/kg was -67%. Besides, in experiment [1] (setting [6]), the inhibition at 150 mg/kg is -72%. Moreover, the results for the IC50 in experiment [2] and in experiment [3] were 120 nM and 1.4e-07 M, respectively.

Take `O=C(CNC(=O)C(CCC1CCNCC1)CCC1CCNCC1)NC[C@H](NS(=O)(=O)c1ccc2ccccc2c1)C(=O)O` [Example 27, (2S)-2-[(2-Naphthylsulphonyl)amino]-3-{[2-({4-(4-piperidyl)-2-[2-(4-piperidyl)ethyl]butanoyl}amino)acetyl]amino}propanoic Acid Dihydrochloride]: the IC50 was determined as 19 nM in experiment [2] and 4.4e-08 M in experiment [3].
